The text below walks through data of paper PMC5652073 (ACS chemical biology, 2017).

The subject of one assay is VEGFR. The note with it: read-out: inhibition of VEGFR, cell-free assay; cited from earlier work.
A further assay concerns c-KIT. The note with it: read-out: inhibition of c-KIT, cell-free assay; cited from earlier work.
For a further assay, the system named is PDGFR. Particulars: read-out: inhibition of PDGFR, cell-free assay; cited from earlier work.
The next assay concerns the target MEK5 (Homo sapiens, UniProt Q13163). Nature of the assay: ADP-Glo biochemical kinase assay, MEK5. Particulars: functional profiling assay.
For the next assay, the target named is T1, MEK7 (Homo sapiens, UniProt O14733).
T1 sequence (O14733 1-419): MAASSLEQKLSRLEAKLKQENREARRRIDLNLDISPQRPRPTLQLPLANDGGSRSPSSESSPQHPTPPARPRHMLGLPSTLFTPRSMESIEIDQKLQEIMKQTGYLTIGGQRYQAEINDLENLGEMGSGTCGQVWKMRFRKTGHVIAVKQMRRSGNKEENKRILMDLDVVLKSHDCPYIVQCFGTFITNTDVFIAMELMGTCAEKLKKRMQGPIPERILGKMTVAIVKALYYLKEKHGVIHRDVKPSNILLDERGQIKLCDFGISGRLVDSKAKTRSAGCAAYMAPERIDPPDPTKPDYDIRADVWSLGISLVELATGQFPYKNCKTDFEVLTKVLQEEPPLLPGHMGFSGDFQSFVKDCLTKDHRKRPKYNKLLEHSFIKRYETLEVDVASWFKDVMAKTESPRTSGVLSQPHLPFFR
The assay is described as follows: ADP-Glo biochemical kinase assay, MEK7. The note with it: functional profiling assay.

A further assay deals with T2, MEK6 (Homo sapiens, UniProt P52564).
T2 sequence (P52564 1-334): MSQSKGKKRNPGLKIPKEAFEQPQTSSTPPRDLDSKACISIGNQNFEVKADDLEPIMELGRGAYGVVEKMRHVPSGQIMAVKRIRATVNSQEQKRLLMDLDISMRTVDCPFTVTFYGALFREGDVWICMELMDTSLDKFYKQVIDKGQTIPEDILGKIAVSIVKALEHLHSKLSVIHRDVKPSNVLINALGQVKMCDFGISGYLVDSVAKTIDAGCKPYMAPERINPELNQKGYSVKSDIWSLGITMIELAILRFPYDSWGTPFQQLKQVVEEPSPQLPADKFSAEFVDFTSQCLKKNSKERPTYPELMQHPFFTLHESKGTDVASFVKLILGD
The assay is described as follows: ADP-Glo biochemical kinase assay, MEK6.

The target of another assay is T3, MEK4 (Homo sapiens, UniProt P45985).
T3 sequence (P45985 1-399): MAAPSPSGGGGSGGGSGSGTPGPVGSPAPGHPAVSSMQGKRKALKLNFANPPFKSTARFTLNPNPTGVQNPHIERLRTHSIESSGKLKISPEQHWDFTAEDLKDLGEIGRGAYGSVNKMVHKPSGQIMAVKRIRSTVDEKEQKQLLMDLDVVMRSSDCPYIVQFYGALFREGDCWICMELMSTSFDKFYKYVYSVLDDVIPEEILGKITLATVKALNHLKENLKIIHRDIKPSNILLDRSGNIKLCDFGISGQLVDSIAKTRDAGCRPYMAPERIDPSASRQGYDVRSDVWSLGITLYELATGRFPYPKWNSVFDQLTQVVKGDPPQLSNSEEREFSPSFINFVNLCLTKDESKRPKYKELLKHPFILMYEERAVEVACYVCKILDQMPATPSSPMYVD
The assay is described as follows: ADP-Glo biochemical kinase assay, MEK4. The note with it: read-out: IC50 against MEK4, ATP below Km.

Entries after “also recorded” stand apart in the source; their conditions may differ. Like-named read-outs stand apart in the source and are kept apart here.

MEK5, sequence (Q13163 whole entry): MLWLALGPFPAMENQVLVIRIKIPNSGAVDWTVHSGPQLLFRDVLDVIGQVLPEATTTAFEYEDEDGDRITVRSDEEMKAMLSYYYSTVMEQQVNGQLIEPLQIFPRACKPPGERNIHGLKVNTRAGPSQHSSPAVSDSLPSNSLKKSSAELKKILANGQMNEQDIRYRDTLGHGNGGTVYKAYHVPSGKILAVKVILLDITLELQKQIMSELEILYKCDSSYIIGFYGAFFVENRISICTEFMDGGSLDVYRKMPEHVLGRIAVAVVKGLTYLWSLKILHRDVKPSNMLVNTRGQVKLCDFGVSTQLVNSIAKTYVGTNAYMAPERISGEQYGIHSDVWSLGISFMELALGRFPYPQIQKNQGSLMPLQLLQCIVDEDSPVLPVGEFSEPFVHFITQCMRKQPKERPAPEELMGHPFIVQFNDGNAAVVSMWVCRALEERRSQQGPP

Turning to “5-[[4-[(2, 3-Dimethyl-2 H-indazol-6-yl) methylamino]-2-pyrimidinyl] amino]-2-methyl-benzene-sulfonamide [Pazopanib]”, the results for the IC50 in the assay on VEGFR, in the assay with c-KIT and in the assay with PDGFR were 0.01 to 0.047 µM, 0.14 µM and 0.084 µM, respectively.
As for `CCN1CCN(Cc2ccc(NC(=O)Nc3ccc(Oc4cc(NC)ncn4)cc3)cc2C(F)(F)F)CC1` [AST-487], the “inhibition of MEK5 (in words)” value against MEK5 is listed as “strongly inhibited”. Also, on MEK7, the “inhibition of MEK7 (in words)” value was “inhibition; also recorded: strongly inhibited”.
Consider `CN(C)C[C@@H]1CCn2cc(c3ccccc32)C2=C(C(=O)NC2=O)c2cn(c3ccccc23)CCO1` [LY-333531], for which the “inhibition of MEK7 (in words)” value at MEK7 was “inhibition”.
The compound `CCCS(=O)(=O)Nc1ccc(F)c(C(=O)c2c[nH]c3ncc(Cl)cc23)c1F` [PLX-4720] gave an IC50 against MEK6 of 60 µM.
`O=C(c1c(F)cccc1F)c1c[nH]c2ncc(Cl)cc12` [compound 3a]: the IC50 on MEK4 was found to be 6.9 µM; on MEK6 (read-out: IC50 against MEK6, ADP-Glo, ATP below Km) it was 75.1 µM.
